Test results from patent US20240277708A1, “Use of [1,2,4] Triazolo [4,3-B] Pyridazine Derivative For Preventing and Treating Senescence and Senescence-Related Diseases” (The Eighth Affiliated Hospital, Sun Yat-Sen University, priority 2023, published 2024).

Tested on: CKD mice (C57BL/6 male)
Experiment: Purine (AP) feed-induced chronic kidney disease (CKD) mouse model
Format: in vivo
Details: 68 mg/kg twice a week
Source text: The protocol for constructing a chronic kidney disease (CKD) mouse model in this example was as follows: 8-week-old C57BL/6 male mice were fed with a feed containing 2‰ purine for 1 month, then, fed with a feedcontaining 1.5‰ purine for 3 months. There were at least 10 mice in each group.
The mice were divided into three groups: (1) normal group; (2) AP+Saline group; (3) AP+C1632 group, 10 mice in each group. The CKD mice in group (3) were fed with a feed containing 2‰ AP for 1 month and then treated with C1632. C1632 was administered twice a week at a dose of 68 mg/kg of body weight each time.
The mice were divided into three groups: (1) normal group; (2) AP+saline group; (3) AP+C1632 group, 10 mice in each group. The CKD mice in group […] were fed with a feed containing 2‰ AP for 1 month and then treated with C1632. C1632 was administered twice a week at a dose of 68 mg/kg of body weight each time. During the subsequent 83 days of treatment, the survival of the mice was counted.
The mice were divided into three groups: (1) normal group; (2) AP+saline group; (3) AP+C1632 group, 10 mice in each group. The CKD mice in group (2) and group (3) were fed with a feed containing 2‰ AP for 1 month and then treated with C1632. C1632 was administered twice a week at a dose of 68 mg/kg of body weight each time. After 3 months, the mice were sacrificed, and the kidneys were removed for Masson staining.

Compound: CC(=O)N(C)c1cccc(-c2ccc3nnc(C)n3n2)c1 [C1632]
- Mortality of CKD model mice (83 days of treatment, FIG. 13): significantly reduces the mortality
- Collagen fibers in the kidney, Masson staining (kidney fibrosis) (after 3 months, FIG. 14): significantly inhibits the level of collagen fibers
- Weight loss in CKD mice (vs control (saline) mice, FIG. 12): significantly inhibits weight loss
